# In the OligoGym collection:
# HELM strings list units from the 5' end as sugar, base in round brackets, then linkage (d deoxyribose, r ribose, m 2'-O-methyl, p phosphodiester). Strings are as the collection lists them; they lack the last nucleoside at the 3' end of the tested compound. [moe] = 2'-O-(2-methoxyethyl) (MOE); [sp] = phosphorothioate linkage; [m5C] = 5-methylcytosine
# Molecular target: APP
# Experiment: mouse, dose not given
# Settings: ASO
row,Substance,3 h FOB score [score 0-7]
1,RNA1{[moe](G)[sp].[moe]([m5C])p.[moe](A)p.[moe](T)p.[moe](G)[sp].d(T)[sp].d(T)[sp].d([m5C])[sp].d(A)[sp].d(T)[sp].d(T)[sp].d([m5C])[sp].d(T)[sp].d([m5C])[sp].d(A)[sp].[moe](T)p.[moe]([m5C])p.[moe]([m5C])[sp].[moe]([m5C])}$$$$ (last 3' nucleoside missing),0
2,RNA1{[moe](G)[sp].[moe]([m5C])p.[moe](A)p.[moe](T)p.[moe](G)[sp].d([m5C])[sp].d([m5C])[sp].d(T)[sp].d(T)[sp].d([m5C])[sp].d([m5C])[sp].d(T)[sp].d([m5C])[sp].d(A)[sp].d(T)[sp].[moe]([m5C])p.[moe]([m5C])p.[moe]([m5C])[sp].[moe]([m5C])}$$$$ (last 3' nucleoside missing),0
3,RNA1{[moe](G)[sp].[moe]([m5C])p.[moe](A)p.[moe](T)p.[moe](T)[sp].d([m5C])[sp].d(A)[sp].d([m5C])[sp].d(A)[sp].d(A)[sp].d([m5C])[sp].d(A)[sp].d([m5C])[sp].d(A)[sp].d([m5C])[sp].[moe](A)p.[moe](T)p.[moe]([m5C])[sp].[moe]([m5C])}$$$$ (last 3' nucleoside missing),0.67
4,RNA1{[moe](G)[sp].[moe]([m5C])p.[moe](A)p.[moe](T)p.[moe](T)[sp].d([m5C])[sp].d(T)[sp].d([m5C])[sp].d(T)[sp].d(T)[sp].d(A)[sp].d(T)[sp].d(A)[sp].d(T)[sp].d(T)[sp].[moe]([m5C])p.[moe]([m5C])p.[moe](T)[sp].[moe](T)}$$$$ (last 3' nucleoside missing),0
5,RNA1{[moe](G)[sp].[moe]([m5C])p.[moe](A)p.[moe](T)p.[moe](T)p.[moe]([m5C])[sp].d(T)[sp].d([m5C])[sp].d(T)[sp].d(T)[sp].d(A)[sp].d(T)[sp].d(A)[sp].d(T)[sp].d(T)[sp].d([m5C])[sp].[moe]([m5C])p.[moe](T)[sp].[moe](T)}$$$$ (last 3' nucleoside missing),1.25
6,RNA1{[moe](G)[sp].[moe]([m5C])p.[moe](A)p.[moe](T)p.[moe]([m5C])[sp].d(A)[sp].d(G)[sp].d(G)[sp].d([m5C])[sp].d(T)[sp].d(A)[sp].d(A)[sp].d([m5C])[sp].d(A)[sp].d(A)[sp].[moe](G)p.[moe](T)p.[moe](T)[sp].[moe]([m5C])}$$$$ (last 3' nucleoside missing),4
7,RNA1{[moe](G)[sp].[moe]([m5C])p.[moe](A)p.[moe](T)p.[moe]([m5C])[sp].d(A)[sp].d([m5C])[sp].d(A)[sp].d(A)[sp].d(T)[sp].d(T)[sp].d([m5C])[sp].d(T)[sp].d(T)[sp].d([m5C])[sp].[moe](A)p.[moe](T)p.[moe](T)[sp].[moe](G)}$$$$ (last 3' nucleoside missing),0
8,RNA1{[moe](G)[sp].[moe]([m5C])p.[moe](A)p.[moe](T)p.[moe]([m5C])[sp].d(A)[sp].d([m5C])[sp].d(T)[sp].d(T)[sp].d(A)[sp].d([m5C])[sp].d(A)[sp].d(A)[sp].d(A)[sp].d([m5C])[sp].[moe](T)p.[moe]([m5C])p.[moe](A)[sp].[moe]([m5C])}$$$$ (last 3' nucleoside missing),0.5
9,RNA1{[moe](G)[sp].[moe]([m5C])p.[moe](A)p.[moe](T)p.[moe]([m5C])[sp].d(T)[sp].d(T)[sp].d(T)[sp].d(T)[sp].d(A)[sp].d([m5C])[sp].d(T)[sp].d(A)[sp].d(T)[sp].d([m5C])[sp].[moe](T)p.[moe](G)p.[moe]([m5C])[sp].[moe]([m5C])}$$$$ (last 3' nucleoside missing),0
10,RNA1{[moe](G)[sp].[moe]([m5C])p.[moe](A)p.[moe]([m5C])p.[moe](A)[sp].d(A)[sp].d(A)[sp].d(T)[sp].d(T)[sp].d(T)[sp].d(T)[sp].d(A)[sp].d(T)[sp].d([m5C])[sp].d(A)[sp].[moe]([m5C])p.[moe](A)p.[moe](T)[sp].[moe]([m5C])}$$$$ (last 3' nucleoside missing),0
11,RNA1{[moe](G)[sp].[moe]([m5C])p.[moe](A)p.[moe]([m5C])p.[moe](A)[sp].d(A)[sp].d(T)[sp].d(T)[sp].d(A)[sp].d(T)[sp].d(T)[sp].d(G)[sp].d(T)[sp].d(T)[sp].d(T)[sp].[moe]([m5C])p.[moe]([m5C])p.[moe](T)[sp].[moe]([m5C])}$$$$ (last 3' nucleoside missing),1
12,RNA1{[moe](G)[sp].[moe]([m5C])p.[moe](A)p.[moe]([m5C])p.[moe](A)[sp].d(A)[sp].d([m5C])[sp].d(T)[sp].d(T)[sp].d(T)[sp].d(A)[sp].d(T)[sp].d(T)[sp].d(T)[sp].d([m5C])[sp].[moe](T)p.[moe](A)p.[moe](G)[sp].[moe](A)}$$$$ (last 3' nucleoside missing),1
13,RNA1{[moe](G)[sp].[moe]([m5C])p.[moe](A)p.[moe]([m5C])p.[moe](T)[sp].d(A)[sp].d([m5C])[sp].d(A)[sp].d(T)[sp].d(T)[sp].d(G)[sp].d([m5C])[sp].d(T)[sp].d(T)[sp].d([m5C])[sp].[moe](A)p.[moe](T)p.[moe](A)[sp].[moe]([m5C])}$$$$ (last 3' nucleoside missing),1
14,RNA1{[moe](G)[sp].[moe]([m5C])p.[moe](A)p.[moe]([m5C])p.[moe]([m5C])[sp].d(A)[sp].d(T)[sp].d([m5C])[sp].d(T)[sp].d(A)[sp].d(T)[sp].d(A)[sp].d(A)[sp].d(T)[sp].d(A)[sp].[moe]([m5C])p.[moe]([m5C])p.[moe](A)[sp].[moe](T)}$$$$ (last 3' nucleoside missing),0
15,RNA1{[moe](G)[sp].[moe]([m5C])p.[moe](G)p.[moe](G)p.[moe](A)[sp].d([m5C])[sp].d(A)[sp].d(T)[sp].d(A)[sp].d([m5C])[sp].d(T)[sp].d(T)[sp].d([m5C])[sp].d(T)[sp].d(T)[sp].[moe](T)p.[moe](A)p.[moe](G)[sp].[moe]([m5C])}$$$$ (last 3' nucleoside missing),0
16,RNA1{[moe](G)[sp].[moe]([m5C])p.[moe](G)p.[moe]([m5C])p.[moe](A)[sp].d(T)[sp].d(T)[sp].d(T)[sp].d(A)[sp].d(T)[sp].d(A)[sp].d([m5C])[sp].d(A)[sp].d(A)[sp].d(T)[sp].[moe](A)p.[moe](T)p.[moe](A)[sp].[moe]([m5C])}$$$$ (last 3' nucleoside missing),0
17,RNA1{[moe](G)[sp].[moe]([m5C])p.[moe](G)p.[moe]([m5C])p.[moe](A)[sp].d(T)[sp].d(T)[sp].d(T)[sp].d(A)[sp].d([m5C])[sp].d(T)[sp].d(A)[sp].d(G)[sp].d([m5C])[sp].d(A)[sp].[moe]([m5C])p.[moe](A)p.[moe](T)[sp].[moe](T)}$$$$ (last 3' nucleoside missing),1.67
18,RNA1{[moe](G)[sp].[moe]([m5C])p.[moe](T)p.[moe](A)p.[moe](T)[sp].d(G)[sp].d(A)[sp].d([m5C])[sp].d(A)[sp].d(A)[sp].d([m5C])[sp].d(A)[sp].d([m5C])[sp].d([m5C])[sp].d(G)[sp].[moe]([m5C])p.[moe]([m5C])p.[moe]([m5C])[sp].[moe](A)}$$$$ (last 3' nucleoside missing),1
